Reference: US20190256827A1, “EPIGENOME EDITING SYSTEMS AND METHODS” (STC.UNM, priority 2017, published 2019)

Columns and labels:
[1] = tested on: IL1RN locus in HEK293T cells; experiment: ChIP-qPCR of FLAG-ABI-P300 and H3K27Ac at the IL1RN locus (dCas9-PYL-HA, FLAG-ABI-P300, IL1RN sgRNAs); format: cell-based, human
Procedure: To examine the recruitment of FLAG-ABI-P300, HEK293T cells were co-transfected with IL1RN sgRNAs, dCas9-PYL-HA and FLAG-ABI-P300 plasmids for 24 hours. Cells were then either treated or not treated with 100 μM ABA for another 24 hours before being harvested. Portions of the cell lysates were analyzed by using ChIP (with anti-FLAG antibody) and qPCR assays to quantify the level of FLAG-ABI-P300. […] To determine if the level of H3K27Ac changes in response to the FLAG-ABI-P300 localization, portions of the cell lysates produced in the above experiment were subjected to ChIP (using anti-H3K27Ac antibody) and qPCR assays to quantify the H3K27Ac enrichment.
Human embryonic kidney cell HEK293T (American Type Culture Collection, Manassas, Va.) was cultured in Dulbecco's modified Eagle's medium (DMEM) (Gibco) with 10% FBS (Atlanta Biologicals), 1× GlutaMax (Gibco, Thermo Fisher Scientific, Inc., Waltham, Mass.), and 1× penicillin/streptomycin (Pen/Strep; Gibco, Thermo Fisher Scientific, Inc., Waltham, Mass.). Cells (100,000/ml) were plated in 24-well or 10-cm cell culture plate the day before transfection. For each well of 24-well plate transfection, 500 ng of dCas9-PYL-HA, 420 ng of FLAG-ABI-P300, and a total amount of 200-ng mix of gRNAs, with a 50-ng per each gRNA, were mixed with 50×(v/w) Opti-MEM (Gibco, Thermo Fisher Scientific, Inc., Waltham, Mass.), then incubate with the same volume of 3 μg PEI-Opti-MEM solution for 20 minutes at room temperature. Then, 100 μL of PEI-combined plasmids were added to every single well of 24-well plate and cultured for 24 hours before experiments were performed. For a 10 cm plate, 1 mL of PEI-combined plasmids were needed. After six hours transfection, cells were washed and incubated for another 1-72 hours before experiments were performed.
ChIP protocol was optimized from the method in Molecular Cloning, Fourth edition (Cold Spring Harbor Laboratory Press, 2012). In brief, cells cultured in a 10-cm plate were fixed with 1 mL of cross-linking buffer (0.1 M NaCl, 1 mM EDTA, 0.5 mM EGTA, 50 mM HEPES and 11% formaldehyde), and shaken in room temperature for 15 minutes. Then 1.1 mL of 1.25 M glycine was added to the solution to stop crosslinking. After washing three times in ice cold PBS, cells were scraped and suspended in 10 mL of lysis buffer (50 mM HEPES, 140 mM NaCl, 1 mM EDTA, 10% Glycerol, 0.5% NP40, 0.25% Triton X-100), and rocked at 4° C. for 10 minutes. Cells were centrifuged at 1,000×g for 10 minutes and were resuspended in protein extraction buffer (200 mM NaCl, 1 mM EDTA, 0.5 mM EGTA, 10 mM Tris). Nuclei were pelleted by centrifuging at 1,000×g for 15 minutes at 4° C., resuspended in 2 mL of chromatin extraction buffer (1 mM EDTA, 0.5 mM EGTA, 10 mM Tris), and divided into six sonication tubes. Then, the samples were sonicated for 24 cycles at a 30 seconds on/30 seconds off protocol. Then samples were moved to a new centrifuge tube and insoluble debris were removed by centrifuge at 2,000×g for 20 minutes at 4° C. 10% volume of samples were stored at −80° C. as 10% input control. […] Then, sample-bound beads were washed eight times with RIPA buffer (50 mM HEPES, 1 mM EDTA, 1% NP40, 0.7% DOC, 0.5 M LiCl, 1× protease inhibitor complete cocktail), and finally re-suspended in TE (pH 8.0) buffer to wash. Then TE buffer was removed completely, 50 μL of elution buffer (10 mM Tris, 1 mM EDTA, 1% SDS) was added and the samples were incubated for 10 minutes at 65° C. and rocked every two minutes. The liquid was collected, 120 μL of elution buffer was added, and the samples were incubated at 65° C. overnight. Samples of 10% input were incubated with […] elution buffer at 65° C. overnight, too. To remove histones, washing buffer (140 μL of TE buffer, 3 μL of 20 mg/ml glycogen and 7 μL of 10 mg/ml Proteinase K) was added and incubated two hours at 37° C. Then ChIP samples were purified with phenol:chloroform:isoamyl alcohol (25:24:1) twice, then purified aqueous in chloroform. […]

[2] = tested on: GAL4DBD-ABI/VP16AD-PYL, inducible luciferase reporter in HEK293T cells; experiment: Inducible luciferase reporter assay, ABA-responsive system (orthogonality); format: cell-based, human; settings: treated with IAA or ABA or DMSO for 24 hours
Procedure: To ensure that IAA and ABA could be used to independently control two histone modification editing events, the orthogonality between these two systems was tested. HEK293T cells were co-transfected with either GAL4DBD-TIR1*/VP16AD-AID (responsive to IAA) or GAL4DBD-ABI/VP16AD-PYL (responsive to ABA), and an inducible luciferase reporter construct. This was followed by treating cells with either IAA or ABA (or DMSO as a control) for 24 hours. […] To test the reversibility of IAA-induced dimerization, in which it was critical to achieve precise temporal control, HEK293T cells were co-transfected with GAL4DBD-TIR1*, VP16AD-AID, and an inducible luciferase expression construct, and then treated cells with 50 μM IAA for 24 hours. Cells were then washed with fresh media without IAA to remove the inducer (or no washing as a control). They were then harvested for luciferase assays after washing.

[3] = IL1RN locus, time course after ABA addition

## CC1=CC(=O)CC(C)(C)[C@@]1(O)/C=C/C(C)=C\C(=O)O [ABA, abscisic acid]
[1]; 100 μM ABA for 24 hours vs not treated, anti-FLAG ChIP
  FLAG-ABI-P300 level at the IL1RN locus: increase in FLAG-ABI-P300 level
[1]; 24 h after ABA addition (100 μM) vs not treated, anti-H3K27Ac ChIP
  H3K27Ac levels at the IL1RN locus: H3K27Ac levels increase
[1]; ABA for 12, 24 or 48 hours, then washed
  stability of H3K27Ac at the IL1RN locus after ABA removal: the longer cells were treated with ABA, the slower H3K27Ac was removed after washing
[1]; ABA for 12, 24 or 48 hours, then washed with non-ABA media
  FLAG-ABI-P300 level at the IL1RN locus after washing to remove ABA: rapidly decreases to a near background level within one hour following washing
[1]; [3]
  time at which the level of H3K27Ac begins to rise: one hour after ABA addition
  time until which H3K27Ac continues to increase: 48 h
[1]; time course after ABA addition
  time at which FLAG-ABI-P300 reaches a maximal level at the IL1RN locus: 12 h
  time of FLAG-ABI-P300 recruitment to the IL1RN locus after ABA addition: Within one hour
[2]
  luciferase expression, ABA-responsive system: Only the proper combination of inducer with corresponding binding proteins could induce luciferase expression
